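Assay format: 96-well plates, 48-hour exposure. GI50 marks 50% less growth. TGI denotes the concentration required for complete inhibition of growth.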
How the values were obtained:
Assay in all cases: NCI tumour cell line growth inhibition, 48 h
SK-OV-3 ovarian = system: SK-OV-3 ovarian
SF-539 CNS = system: SF-539 CNS
RXF 393 renal = system: RXF 393 renal
SK-MEL-5 melanoma = system: SK-MEL-5 melanoma
CCRF-CEM leukemia = system: CCRF-CEM leukemia
HL-60(TB) leukemia = system: HL-60(TB) leukemia
MDA-MB-435 = system: MDA-MB-435
U251 CNS = system: U251 CNS
SK-MEL-28 melanoma = system: SK-MEL-28 melanoma
SW-620 colon = system: SW-620 colon

Compound | GI50 (SK-OV-3 ovarian) [µM] | TGI (SK-OV-3 ovarian) [µM] | GI50 (SF-539 CNS) [µM] | TGI (SF-539 CNS) [µM] | GI50 (RXF 393 renal) [µM] | TGI (RXF 393 renal) [µM] | GI50 (SK-MEL-5 melanoma) [µM] | TGI (SK-MEL-5 melanoma) [µM] | GI50 (CCRF-CEM leukemia) [µM] | TGI (CCRF-CEM leukemia) [µM] | GI50 (HL-60(TB) leukemia) [µM] | TGI (HL-60(TB) leukemia) [µM] | GI50 (MDA-MB-435) [µM] | TGI (MDA-MB-435) [µM] | GI50 (U251 CNS) [µM] | TGI (U251 CNS) [µM] | GI50 (SK-MEL-28 melanoma) [µM] | TGI (SK-MEL-28 melanoma) [µM] | GI50 (SW-620 colon) [µM] | TGI (SW-620 colon) [µM]
NC(Cc1ccc(O)cc1)C(=O)N/N=C/c1ccc(N(CCCl)CCCl)cc1 (centres undefined) | 47.9 | > 100 | 4.26 | 68.3 | 20.6 | > 100 | 19.5 | > 100 | 0.231 | > 100 | 0.0757 | 14.6 | 12.2 | 65.4 | 27.8 | > 100 | 58.7 | > 100 | 16 | > 100
COC(=O)c1c2c(c(C)[n+]([O-])c1C)C(=O)C=C(NCc1ccc(Br)cc1)C2=O | 1.52 | 3.41 | 0.72 | 2 | 1.09 | 2.54 | 0.201 | 0.435 | 0.669 |  | 0.309 | 1.5 | 0.095 | 0.243 | 0.778 | 2.46 | 0.987 | 2.72 | 0.17 | 1.71
Cc1ccc2c(n1)C(=O)C(Cl)=C(Nc1ccc(N3CCN(C)CC3)cc1)C2=O | 13 | 25.8 | 1.74 | 3.22 | 1.67 | 3.05 | 1.72 | 3.1 | 3.07 | 56.4 | 2.22 | 4.89 | 1.88 | 3.46 | 1.79 | 3.19 | 1.88 | 3.31 | 2.01 | 4.52
Cc1cc(Br)c2nsnc2c1[N+](=O)[O-] | 13.5 | 26.4 | 3.1 | 11.2 | 6.66 | 18.5 | 3.88 | 13.8 | 2.16 | 5.44 | 1.86 | 4.56 | 2.86 | 11.1 | 2.73 | 8.12 | 3.34 | 7.67 | 2.15 | 15.1
COc1ccc(Oc2nc(Nc3ccc(N4CCOCC4)cc3)ncc2NC(=O)Nc2cc(OC)cc(OC)c2)cc1 | 7.86 | 25.6 | 1.06 | 4.69 | 1.54 | 5.8 | 1.11 | 3.79 | > 33.3 | > 33.3 | 10.8 | > 33.3 | 2.33 | 17.1 | 1.38 | 5.88 | 2.5 | 9.73 | 3.17 | > 33.3
Oc1[nH]c2ccc(Cl)cc2c1/C=c1/ccc2c(c1)N=C(c1ccc(C(F)(F)F)cc1)N=2 | 4.19 | 13.9 | 2.51 | 6.65 | 1.88 | 3.76 | 1.7 | 3.31 | 2.43 | 6.96 | 2.61 | 5.55 | 1.9 | 4.7 | 1.74 | 3.47 | 2.35 | 6.71 | 1.97 | 4.1

— PubChem BioAssay (NCI)
